In assay [1] the target is T1, AR (Homo sapiens, UniProt P10275).
T1 sequence (P10275 1-920): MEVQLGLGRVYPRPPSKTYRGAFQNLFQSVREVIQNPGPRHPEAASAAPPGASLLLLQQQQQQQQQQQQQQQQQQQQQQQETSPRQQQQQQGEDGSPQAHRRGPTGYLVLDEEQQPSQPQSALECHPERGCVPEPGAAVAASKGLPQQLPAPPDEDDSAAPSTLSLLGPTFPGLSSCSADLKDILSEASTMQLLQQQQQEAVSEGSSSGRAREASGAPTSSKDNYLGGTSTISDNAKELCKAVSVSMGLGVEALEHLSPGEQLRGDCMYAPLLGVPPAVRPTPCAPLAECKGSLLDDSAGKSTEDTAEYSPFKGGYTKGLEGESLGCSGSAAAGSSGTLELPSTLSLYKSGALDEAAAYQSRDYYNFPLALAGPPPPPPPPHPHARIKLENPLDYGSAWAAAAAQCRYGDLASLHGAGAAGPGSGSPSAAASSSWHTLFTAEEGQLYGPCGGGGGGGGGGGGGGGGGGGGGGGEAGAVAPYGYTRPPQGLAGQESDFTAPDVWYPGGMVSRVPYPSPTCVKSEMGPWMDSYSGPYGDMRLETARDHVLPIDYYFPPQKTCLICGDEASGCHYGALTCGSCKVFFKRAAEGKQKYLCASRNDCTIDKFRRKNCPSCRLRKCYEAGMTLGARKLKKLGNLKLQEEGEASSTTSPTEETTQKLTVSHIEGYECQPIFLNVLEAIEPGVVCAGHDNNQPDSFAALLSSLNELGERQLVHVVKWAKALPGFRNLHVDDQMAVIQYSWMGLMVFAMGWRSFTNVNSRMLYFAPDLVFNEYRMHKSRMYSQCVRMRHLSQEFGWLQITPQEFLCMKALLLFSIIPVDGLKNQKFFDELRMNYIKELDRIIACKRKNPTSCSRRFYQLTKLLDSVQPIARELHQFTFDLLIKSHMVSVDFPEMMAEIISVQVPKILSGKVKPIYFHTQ
The settings on record: previous studies of the inventors; cited from earlier work.

For assay [2], the system named is PSA mRNA in LNCaP cells. Kind of assay: PSA mRNA expression level in LNCaP cells (real-time PCR). Particulars: 10^−5M, 24 hours, control (DMSO) 1.0. Format: cell-based, human. As for the experimental part: (§1) 1) Extraction of Total RNA
(§2) After respectively culturing the LNCaP cells and NIH-3T3-L1 cells co-transfected in 1) to 3) above in 6-well plates, the cells were cultured for 24 hours in EMEM or RPMI 1640 containing 10% fetal calf serum treated with dextran-charcoal and a test compound (dissolved in a small amount of DMSO). Subsequently, total RNA was respectively extracted using Isogen (Wako Pure Chemical Industries).
(§3) 5 μg aliquots of each total RNA obtained in 1) above were reverse-transcribed to first strand cDNA using a Superscript III Kit (Invitrogen) and brought to a final volume of 20 μL. Real-time PCR was carried out using LightCycler FastStart DNA Master SYBR Green I (Roche Diagnostic) in order to quantify expression of PSA mRNA in LNCaP cells and UCP-1 mRNA in NIH-3T3-L1 cells. PCR was carried out under the following conditions in 20 μL of reaction mixture: 50 cycles consisting of denaturing for 3 seconds at 95° C., annealing for 10 seconds at 60° C. and elongating for 25 seconds at 72° C. β-actin mRNA was also simultaneously amplified for use as an internal standard. Real-time PCR value for each transcription product were calculated as a relative ratio to β-actin.

Assay [3] concerns PSA promoter. Kind of assay: PSA promoter-luciferase activity in LNCaP cells (dual-luciferase reporter). Format: cell-based, human. Particulars: 10^−5M, 24 hours, control (DMSO) 1.0. On the procedure:
Plasmid pCMV-hAR was constructed based on a method previously reported by the inventors of the present invention (J. Biol. Chem., 282, 7329-7338). In addition, reporter plasmids consisting of PGL3-PSA (human) and PGL3-UCP-1 (mouse) were also constructed based on a method previously reported by the inventors of the present invention (Diabetes, 54, 1000-1008). Furthermore, pRL-SV40 was acquired commercially.
NIH-3T30-L1 mouse preadipocytes were cultured in Dulbecco's modified Eagle's medium (Sera Laboratories) containing 10% fetal calf serum. In addition, cells of human prostate cancer cell line LNCap were cultured in RPMI 1640 medium (Sigma) containing 10% fetal calf serum. Furthermore, these two types of cell lines were obtained from the American Type Culture Collection (Manassas).
The NIH-3T3-L1 cells of 2) above were co-transfected with pCMV-hAR, pRL-SV40 and PGL3-UCP-1 (mouse) in a 24-well plate using an Effectene Transfection Kit (Qiagen) and a Fugene HD Kit (Roche Diagnostics). In addition, the LNCaP cells of 2) above were similarly co-transfected with pCMV-hAR, pRL-SV40 and PGL3-PSA (human).
4) Measurement of Effect on PSA Promoter-Luciferase Activity in LNCaP Cells
The LNCaP cells co-transfected in 3) above were cultured for 24 hours in DMEM or RPMI 1640 containing 10% fetal calf serum treated with dextran-charcoal and a test compound (dissolved in a small amount of DMSO) 24 hours after transfection. Subsequently, the activities of firefly luciferase and Renilla luciferase were assayed in a 24-well plate using the Dual-Luciferase Reporter Assay System (Promega) in accordance with the protocol of Minilumat LB9507 (Berthold Technologies). Furthermore, the value of firefly luciferase activity were normalized based on the internal Renilla control, and were presented as relative luciferase activity.

For assay [4], the system named is UCP-1 mRNA in NIH-3T3-L1 cells. Kind of assay: UCP-1 mRNA expression level in NIH-3T3-L1 cells (real-time PCR). Type of assay: cell-based, mouse. The settings on record: 10^−5M, 24 hours, control (DMSO) 1.0. On the procedure:
as §1, §2, §3

`CC(C)(O)C(=O)Nc1ccc([N+](=O)[O-])c(C(F)(F)F)c1` [hydroxyflutamide]: the “Formation of subnuclear AR foci (dots) (in words)” value in assay [1] is listed as “do not form foci (dots)”.

Take `CC(=O)O[C@H]1CC[C@]2(C)C3CC[C@]45C(=O)O[C@H](C)[C@H]4CCC5C3CC[C@H]2C1` (stereo partly shown) [Compound of formula (IIa)]: the “PSA mRNA (relative ratio to β-actin mRNA)” value in assay [2] is reported as 0.9. Besides, the “Value of luciferase transcription activity (PSA promoter, relative luciferase activity)” value in assay [3] is recorded as 0.8. Besides, the “UCP-1 mRNA (relative ratio to β-actin mRNA)” value in assay [4] is given as 1.4.

As to `CO[C@H]1CC[C@@]2(C)C(=CCC3C4CCOC[C@@]4(C)CCC32)C1` (stereo partly drawn) [Compound of formula (IIIa), 16a-homo-16a-oxestra-5-ene-3β-methoxide], the “PSA mRNA (relative ratio to β-actin mRNA)” value in assay [2] is listed as 0.8. For the same compound, the “Value of luciferase transcription activity (PSA promoter, relative luciferase activity)” value in assay [3] is reported as 0.8. In addition, in assay [4], the “UCP-1 mRNA (relative ratio to β-actin mRNA)” value turned out to be 1.8.

Source of the values: patent US8623909B2, “Prophylactic/therapeutic agents for lifestyle-related diseases” (priority 2008, dated 2014).
